Experimental data published in ChEMBL document CHEMBL1151836, “Citronamides A and B, tetrapeptides from the Australian sponge Citronia astra” (J Nat Prod, 2009).
Converted amounts (≈) assume the structure as drawn. The source made the active and inactive calls. No cut-off for these calls is given here.

Tests used:
[1] = tested on: Plasmodium falciparum; test: Antimalarial activity against chloroquine-resistant Plasmodium falciparum Dd2 at 120 uM after 72 hrs by DAPI stain; format: functional
[2] = tested on: Trypanosoma brucei; test: Antitrypanosomal activity against Trypanosoma brucei BS427 upto 120 uM after 48 hrs by alamar blue assay; format: functional, organism-based
[3] = tested on: Saccharomyces cerevisiae; test: Antibacterial activity against Saccharomyces cerevisiae after 19 to 20 hrs by agar hole punch diffusion assay; format: functional
[4] = tested on: HEK293; test: Cytotoxicity against HEK293 cells upto 120 uM after 72 hrs by alamar blue assay; format: cell-based; details: human, hek293, 72 h
[5] = tested on: Staphylococcus; test: Antibacterial activity against Staphylococcus albus epidermis strain at 800 ug/mL after 19 to 20 hrs by agar hole punch diffusion assay; format: functional, organism-based
[6] = tested on: HeLa; test: Cytotoxicity against human HeLa cells upto 120 uM after 72 hrs by alamar blue assay; format: functional, cell-based
[7] = tested on: Escherichia coli; test: Antibacterial activity against Escherichia coli K-12 after 19 to 20 hrs by agar hole punch diffusion assay; format: functional

`CC[C@@H](C)[C@@H](NC(=O)[C@@H](NC(=O)[C@H](NC(=O)CCCCC(N)Cc1ccc(OC)cc1)[C@@H](O[C@@H]1O[C@@H](C(=O)O)[C@@H](O)[C@H](OC(N)=O)[C@H]1O)c1c[nH]c(=O)[nH]1)[C@@H](C)CC)C(=O)O` (some centres not stated) [CITRONAMIDE A] was tested, and the Activity [1] was 24%, the Activity [2] was “inactive” and the MIC [3] was 8 µg/mL (≈ 9.24 µM). The Activity [4] was “Not Active”, the Activity [5] was “inactive” and the Activity [6] was “inactive”. It also gave an MIC [7] of 80 µg/mL (≈ 92.4 µM).
